# In ChEMBL document CHEMBL3608294, “Epoxylathyrol Derivatives: Modulation of ABCB1-Mediated Multidrug Resistance in Human Colon Adenocarcinoma and Mouse T-Lymphoma Cells” (J Nat Prod, 2015):
# pIC50: −log10 of the molar value.
# Assays:
# [1] = molecular target: T1, ATP-dependent translocase ABCB1 (Homo sapiens, UniProt P08183); test: Inhibition of ABCB1 in multidrug resistant human COLO320 cells assessed as fluorescence activity ratio at 20 uM incubated for 10 mins by flow cytometry based rhodamine-123 accumulation assay (reference value: 0.62)
# [2] = Antiproliferative activity against chemosensitive human COLO205 cells incubated for 72 hrs by MTT assay; assay type: functional, cell-based; conditions: COLO 205, 72 h
# L5178Y [3] = test: Cytotoxicity against human ABCB1 expressing mouse L5178Y cells incubated for 24 hrs by MTT assay; assay type: functional, cell-based
# [4] = molecular target: T1, ATP-dependent translocase ABCB1; test: Inhibition of human ABCB1 expressed in mouse L5178Y cells assessed as fluorescence activity ratio at 20 uM incubated for 10 mins by flow cytometry based rhodamine-123 accumulation assay (reference value: 0.78); assay type: cell-based
# L5178Y [5] = test: Selectivity index, ratio of antiproliferative IC50 for wild type parental mouse L5178Y cells to antiproliferative IC50 for human ABCB1 expressing mouse L5178Y cells; assay type: functional
# L5178Y [6] = test: Antiproliferative activity against chemosensitive wild type parental mouse L5178Y cells incubated for 72 hrs by MTT assay; assay type: functional, cell-based
# L5178Y [7] = test: Cytotoxicity against chemosensitive wild type parental mouse L5178Y cells incubated for 24 hrs by MTT assay; assay type: functional, cell-based
# [8] = molecular target: T1, ATP-dependent translocase ABCB1; test: Inhibition of ABCB1 in multidrug resistant human COLO320 cells assessed as fluorescence activity ratio at 2 uM incubated for 10 mins by flow cytometry based rhodamine-123 accumulation assay (reference value: 0.62)
# [9] = Cytotoxicity against multidrug resistant human COLO320 cells incubated for 24 hrs by MTT assay; assay type: functional, cell-based; conditions: COLO 320, 24 h
# [10] = Antiproliferative activity against multidrug resistant human COLO320 cells incubated for 72 hrs by MTT assay; assay type: functional; conditions: COLO 320, 72 h
# COLO 205 = test: Cytotoxicity against chemosensitive human COLO205 cells incubated for 24 hrs by MTT assay; assay type: functional, cell-based; conditions: COLO 205, 24 h
# L5178Y [11] = test: Antiproliferative activity against human ABCB1 expressing mouse L5178Y cells incubated for 72 hrs by MTT assay; assay type: functional, cell-based
# [12] = molecular target: T1, ATP-dependent translocase ABCB1; test: Inhibition of human ABCB1 expressed in mouse L5178Y cells assessed as fluorescence activity ratio at 2 uM incubated for 10 mins by flow cytometry based rhodamine-123 accumulation assay (reference value: 0.78); assay type: cell-based
# [13] = Selectivity index, ratio of cytotoxic IC50 for chemosensitive human COLO205 cells to cytotoxic IC50 for multidrug resistant human COLO320 cells; assay type: functional, COLO 205
# [14] = molecular target: T1, ATP-dependent translocase ABCB1; test: Inhibition of human ABCB1 expressed in mouse L5178Y cells assessed as potentiation of 2 mg/ml doxorubicin-induced cytotoxicty by measuring combination index at 5:1 compound to doxorubicin ratio incubated for 48 hrs by MTT assay; assay type: cell-based
# [15] = Selectivity index, ratio of antiproliferative IC50 for chemosensitive human COLO205 cells to antiproliferative IC50 for multidrug resistant human COLO320 cells; assay type: functional, COLO 205
# [16] = molecular target: T1, ATP-dependent translocase ABCB1; test: Inhibition of ABCB1 in multidrug resistant human COLO320 cells assessed as fluorescence activity ratio at 0.2 uM incubated for 10 mins by flow cytometry based rhodamine-123 accumulation assay (reference value: 0.62)
# [17] = molecular target: T1, ATP-dependent translocase ABCB1; test: Inhibition of human ABCB1 expressed in mouse L5178Y cells assessed as fluorescence activity ratio at 0.2 uM incubated for 10 mins by flow cytometry based rhodamine-123 accumulation assay (reference value: 0.78); assay type: cell-based
# L5178Y [18] = test: Selectivity index, ratio of cytotoxic IC50 for wild type parental mouse L5178Y cells to cytotoxic IC50 for human ABCB1 expressing mouse L5178Y cells; assay type: functional
# T1 sequence (P08183 whole entry): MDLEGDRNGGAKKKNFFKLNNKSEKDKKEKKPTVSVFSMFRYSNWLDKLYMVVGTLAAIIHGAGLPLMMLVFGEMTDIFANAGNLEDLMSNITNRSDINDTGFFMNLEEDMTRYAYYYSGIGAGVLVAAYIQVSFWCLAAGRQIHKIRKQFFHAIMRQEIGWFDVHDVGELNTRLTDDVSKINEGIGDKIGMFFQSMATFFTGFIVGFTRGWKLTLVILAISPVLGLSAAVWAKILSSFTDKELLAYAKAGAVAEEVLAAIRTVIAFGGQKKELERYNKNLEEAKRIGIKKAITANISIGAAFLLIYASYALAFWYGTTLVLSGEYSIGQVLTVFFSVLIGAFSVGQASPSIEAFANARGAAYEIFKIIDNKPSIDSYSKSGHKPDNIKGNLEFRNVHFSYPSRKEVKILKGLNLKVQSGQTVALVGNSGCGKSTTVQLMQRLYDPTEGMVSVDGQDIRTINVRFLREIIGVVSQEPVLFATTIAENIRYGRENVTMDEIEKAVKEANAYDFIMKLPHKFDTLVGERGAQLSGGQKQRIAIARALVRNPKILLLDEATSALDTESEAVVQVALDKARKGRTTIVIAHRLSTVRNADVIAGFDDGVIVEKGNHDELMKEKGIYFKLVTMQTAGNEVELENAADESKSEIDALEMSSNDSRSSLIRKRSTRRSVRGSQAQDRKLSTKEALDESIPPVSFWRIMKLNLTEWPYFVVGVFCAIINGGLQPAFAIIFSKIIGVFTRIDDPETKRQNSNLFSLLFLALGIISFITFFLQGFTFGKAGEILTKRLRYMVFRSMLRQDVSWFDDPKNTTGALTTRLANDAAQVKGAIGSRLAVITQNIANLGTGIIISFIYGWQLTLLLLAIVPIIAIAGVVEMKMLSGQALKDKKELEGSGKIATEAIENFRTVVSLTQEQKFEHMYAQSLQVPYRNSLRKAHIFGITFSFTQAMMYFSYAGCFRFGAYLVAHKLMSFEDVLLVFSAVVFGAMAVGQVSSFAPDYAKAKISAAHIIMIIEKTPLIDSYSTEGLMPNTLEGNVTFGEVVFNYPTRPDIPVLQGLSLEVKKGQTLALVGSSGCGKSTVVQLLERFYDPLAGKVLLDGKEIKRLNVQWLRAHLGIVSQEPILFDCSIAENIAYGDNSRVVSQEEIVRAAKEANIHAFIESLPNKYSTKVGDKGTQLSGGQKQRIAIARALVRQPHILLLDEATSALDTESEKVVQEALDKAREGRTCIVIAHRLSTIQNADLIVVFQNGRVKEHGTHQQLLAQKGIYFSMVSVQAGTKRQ
Structure (SMILES),Ratio [1],Ratio [4],Ratio [8],Ratio [12],Ratio [16],Ratio [17],pIC50 [2],pIC50 (L5178Y [3]),Ratio IC50 (L5178Y [5]),pIC50 (L5178Y [6]),pIC50 (L5178Y [7]),pIC50 [9],pIC50 [10],pIC50 (COLO 205),pIC50 (L5178Y [11]),Ratio IC50 [13],CI [14],Ratio IC50 [15],Ratio IC50 (L5178Y [18])
COc1ccc(CCN(C)CCCC(C#N)(c2ccc(OC)c(OC)c2)C(C)C)cc1OC (stereo not drawn),8.95,–,–,–,–,–,–,–,–,–,–,–,–,–,–,–,–,–,–
C/C1=C\[C@@H]2[C@H](CC[C@@](C)(O)[C@H](O)[C@H]3[C@@H](O)[C@@H](C)C[C@]3(O)[C@@H]1O)C2(C)C,3.81,11.61,1.02,0.51,–,–,< 4.00,< 4.00,–,< 4.00,< 4.00,< 4.00,< 4.00,< 4.00,< 4.00,–,–,–,–
CC(=O)O[C@@H]1[C@@H]2[C@@H](OC(C)=O)[C@](C)(OC(C)=O)CC[C@H]3[C@@H](/C=C(\C)[C@H](OC(C)=O)[C@@]2(OC(C)=O)C[C@@H]1C)C3(C)C,5.98,51.34,2.76,11.37,–,–,< 4.00,< 4.00,–,< 4.00,< 4.00,4.29,< 4.00,4.31,< 4.00,0.96,0.205,–,–
C/C1=C\[C@@H]2[C@H](CC[C@]3(CO3)[C@H](OC(=O)C34CC5CC(CC(C5)C3)C4)[C@H]3[C@@H](OC(=O)C45CC6CC(CC(C6)C4)C5)[C@@H](C)C[C@]3(O)C1=O)C2(C)C,1.64,31.69,1.2,22.36,–,–,< 4.30,< 4.30,–,< 4.30,< 4.30,< 4.30,4.56,< 4.30,< 4.30,–,–,>1.81,–
C/C1=C\[C@@H]2[C@H](CC[C@@](C)(O)[C@H](O)[C@H]3[C@@H](O)[C@@H](C)C[C@]3(O)[C@H]1O)C2(C)C,1.11,0.59,1,0.54,–,–,< 4.00,< 4.00,–,< 4.00,< 4.00,< 4.00,< 4.00,< 4.00,< 4.00,–,–,–,–
C/C1=C\[C@@H]2[C@H](CC[C@]3(CO3)[C@H](OC(=O)N3CCOCC3)[C@H]3[C@@H](OC(=O)N4CCOCC4)[C@@H](C)C[C@]3(O)C1=O)C2(C)C,1.42,1.38,1.09,1.22,–,–,< 4.00,< 4.00,–,< 4.00,< 4.00,< 4.00,< 4.00,< 4.00,< 4.00,–,–,–,–
C/C1=C\[C@@H]2[C@H](CC[C@]3(CO3)[C@H](O)[C@H]3[C@@H](O)[C@@H](C)C[C@]3(O)C1=O)C2(C)C,1.05,1.49,1.02,1.15,–,–,< 4.00,< 4.00,–,< 4.00,< 4.00,< 4.00,< 4.00,< 4.00,< 4.00,–,–,–,–
CCO[C@@H]1[C@@H]2C(=O)C(O)(C[C@H](C)[C@@H]2O)/C(C)=C\[C@@H]2[C@H](CC[C@@]1(O)CO)C2(C)C,3.18,38.92,1.5,5.85,–,–,< 4.00,< 4.00,–,< 4.00,< 4.00,< 4.00,< 4.00,< 4.00,< 4.00,–,–,–,–
CCN(CC)C(=O)O[C@@H]1[C@@H]2[C@@H](OC(=O)N(CC)CC)[C@]3(CC[C@H]4[C@@H](/C=C(\C)C(=O)[C@@]2(O)C[C@@H]1C)C4(C)C)CO3,3.54,10.62,1.54,1.71,–,–,< 4.00,< 4.00,–,< 4.00,< 4.00,< 4.00,< 4.00,< 4.00,< 4.00,–,–,–,–

# Second part, led by results:
Ratio [1],Ratio [4],Ratio [8],Ratio [12],Ratio [16],Ratio [17],Structure (SMILES),pIC50 [2],pIC50 (L5178Y [3]),Ratio IC50 (L5178Y [5]),pIC50 (L5178Y [6]),pIC50 (L5178Y [7]),pIC50 [9],pIC50 [10],pIC50 (COLO 205),pIC50 (L5178Y [11]),Ratio IC50 [13],CI [14],Ratio IC50 [15],Ratio IC50 (L5178Y [18])
2.64,30.97,2.7,22.82,–,–,C/C1=C\[C@@H]2[C@H](CC[C@]3(CO3)[C@H](OC(=O)c3ccc(-c4ccccc4)cc3)[C@H]3[C@@H](OC(=O)c4ccc(-c5ccccc5)cc4)[C@@H](C)C[C@]3(O)C1=O)C2(C)C,< 4.00,< 4.00,<0.74,4.13,< 4.00,< 4.00,< 4.00,< 4.00,< 4.00,–,–,–,–
3.39,38.97,2.52,38.72,–,–,C/C1=C\[C@@H]2[C@H](CC[C@]3(CO3)[C@H](OC(=O)c3ccc(C(F)(F)F)cc3)[C@H]3[C@@H](OC(=O)c4ccc(C(F)(F)F)cc4)[C@@H](C)C[C@]3(O)C1=O)C2(C)C,< 4.00,< 4.00,–,< 4.00,< 4.00,< 4.00,< 4.00,< 4.00,< 4.00,–,–,–,–
2.25,2.07,1.1,1.16,–,–,CCC(=O)OC[C@]1(O)CC[C@H]2[C@@H](/C=C(\C)C(=O)[C@@]3(O)C[C@H](C)[C@H](OC(=O)CC)[C@@H]3[C@H]1O)C2(C)C,< 4.00,< 4.00,–,< 4.00,< 4.00,< 4.00,< 4.00,< 4.00,< 4.00,–,–,–,–
11.56,41.81,8.25,39.3,2.83,9.87,CO[C@H]1[C@@H]2[C@H](CC[C@]3(COC(=O)c4ccc(C(F)(F)F)cc4)O[C@@H]3[C@H]3[C@@H](OC(=O)c4ccc(C(F)(F)F)cc4)[C@@H](C)C[C@]3(O)C(=O)[C@@H]1C)C2(C)C,5.09,4.29,0.78,4.48,4.32,–,5.03,–,4.42,–,0.054,0.88,0.94
5.5,42.56,1.67,6.09,–,–,C/C1=C\[C@@H]2[C@H](CC[C@]3(CO3)[C@H](OC(=O)c3ccco3)[C@H]3[C@@H](OC(=O)c4ccco4)[C@@H](C)C[C@]3(O)C1=O)C2(C)C,4.56,< 4.30,<0.5,4.61,< 4.30,< 4.30,4.55,< 4.30,< 4.30,–,0.053,0.98,–
2.26,18.3,1.1,1.22,–,–,CO[C@H]1[C@@H]2[C@H](CC[C@]3(CO)O[C@@H]3[C@H]3[C@@H](O)[C@@H](C)C[C@]3(O)C(=O)[C@@H]1C)C2(C)C,< 4.00,< 4.00,–,< 4.00,< 4.00,< 4.00,< 4.00,< 4.00,< 4.00,–,–,–,–
5.78,71.12,2.94,43.35,1.48,2.33,C/C1=C\[C@@H]2[C@H](CC[C@@](C)(O)[C@H](O)[C@H]3[C@@H](OC(=O)c4ccccc4)[C@@H](C)C[C@]3(O)[C@H]1OC(=O)c1ccccc1)C2(C)C,< 4.00,4.29,<0.39,4.41,4.28,4.29,4.52,4.35,< 4.00,0.88,–,>3.28,1.03
